The values that follow are results of earlier work, collected in patent publication EP1288303A1, “Inducible expression systems employing PPAR transcriptional activators” (Aventis Pharma S.A., priority 2001, dated 2003).

For this series the following is noted: form not soluble in water; doses between 5 and 50 mg/kg, for example 30 mg/kg.

With `CN(CCOc1ccc(CC2SC(=O)NC2=O)cc1)c1ccccn1` (stereo not shown) [BRL49653, rosiglitazone], the plasma concentration result is given as “about 15 µg/ml”.
